Results published in patent US10385022B2, “3-amino-pyridines as GPBAR1 agonists” (HOFFMANN-LA ROCHE INC., priority 2011, dated 2019).

biological target: human GPBAR1 receptor (Homo sapiens (Human), UniProt Q8TDU6); experiment: functional cAMP assay in CHO-dhfr(minus) cells expressing human GPBAR1 receptors; assay type: cell-based; conditions: CHO-dhfr(minus) cells expressing human GPBAR1, 30 min at 30° C.
In short: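 CHO-dhfr- cells were transfected with human GPBAR1, and a clone was chosen by cAMP response to lithocholic acid. EC50 values come from the cAMP read-out; specificity was checked in non-transfected CHO cells.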

human GPBAR1 receptor, sequence (Q8TDU6 whole entry): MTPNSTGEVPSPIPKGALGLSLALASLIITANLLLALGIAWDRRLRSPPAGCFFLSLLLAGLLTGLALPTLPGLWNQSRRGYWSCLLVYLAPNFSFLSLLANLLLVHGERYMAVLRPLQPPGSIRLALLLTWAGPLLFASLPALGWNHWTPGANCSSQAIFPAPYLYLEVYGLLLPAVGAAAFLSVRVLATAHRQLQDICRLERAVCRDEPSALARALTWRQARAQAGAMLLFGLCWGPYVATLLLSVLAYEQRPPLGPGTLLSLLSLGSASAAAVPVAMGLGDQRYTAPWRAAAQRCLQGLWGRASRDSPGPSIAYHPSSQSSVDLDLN

First: COc1cc(F)c(F)cc1-c1ccncc1N(CC(N)=O)C(=O)c1cc(C(F)(F)F)cc(S(C)(=O)=O)c1 [Example 193, N-(2-Amino-2-oxoethyl)-N-(4-(4,5-difluoro-2-methoxyphenyl)pyridin-3-yl)-3-(methylsulfonyl)-5-(trifluoromethyl)benzamide]
Second: COc1cc(F)c(F)cc1-c1ccncc1N(CC(N)=O)C(=O)c1cc(C(F)(F)F)cc(C(F)(F)F)c1 [Example 189, N-Carbamoylmethyl-N-[4-(4,5-difluoro-2-methoxy-phenyl)-pyridin-3-yl]-3,5-bis-trifluoromethyl-benzamide]
The EC50 of the first is 9.7-fold higher: 456 nM for the first, 47 nM for the second.

Compared with `CS(=O)(=O)c1cc(C(=O)N(CC(F)F)c2cnccc2-c2ccccc2F)cc(C(F)(F)F)c1` [Example 215, N-(2,2-Difluoro-ethyl)-N-[4-(2-fluoro-phenyl)-pyridin-3-yl]-3-methanesulfonyl-5-trifluoromethyl-benzamide], `CS(=O)(=O)c1cc(C(=O)N(CCO)c2cnccc2-c2ccccc2F)cc(C(F)(F)F)c1` [Example 244, N-[4-(2-Fluoro-phenyl)-pyridin-3-yl]-N-(2-hydroxy-ethyl)-3-methanesulfonyl-5-trifluoromethyl-benzamide] is 5.3-fold higher in EC50: 216 nM for the first, 1150 nM for the second. The first is the more potent here.

Going from `COc1cc(F)ccc1-c1cc(C)ncc1N(C)C(=O)c1cc(C(F)(F)F)cc(S(=O)(=O)C2COC2)c1` [Example 314, N-[4-(4-Fluoro-2-methoxy-phenyl)-6-methyl-pyridin-3-yl]-N-methyl-3-(oxctane-3-sulfonyl)-5-trifluoromethyl-benzamide] to `COc1cc(F)ccc1-c1cc(C)ncc1N(C)C(=O)c1cc(Cl)cc(S(C)(=O)=O)c1` [Example 301, 3-Chloro-N-[4-(4-fluoro-2-methoxy-phenyl)-6-methyl-pyridin-3-yl]-5-methanesulfonyl-N-methyl-benzamide], the EC50 rises from 115 nM to 219 nM (1.9-fold).

Going from `COC(=O)CN(C(=O)c1cc(C(F)(F)F)cc(S(C)(=O)=O)c1)c1cnccc1-c1ccccc1Cl` [Example 289, [[4-(2-Chloro-phenyl)-pyridin-3-yl]-(3-methanesulfonyl-5-trifluoromethyl-benzoyl)-amino]-acetic acid methyl ester] to `NC(=O)CN(C(=O)c1cc(C(F)(F)F)cc(C(F)(F)F)c1)c1cnccc1-c1ccccc1Cl` [Example 117, N-Carbamoylmethyl-N-[4-(2-chloro-phenyl)-pyridin-3-yl]-3,5-bis-trifluoromethyl-benzamide], the EC50 falls from 275 nM to 52 nM (5.3-fold). The second is the more potent here.

`Cc1ccccc1-c1cc(Cl)ncc1N(C)C(=O)c1cc(C(F)(F)F)cc(C(F)(F)F)c1` [Example 12, N-(6-Chloro-4-o-tolyl-pyridin-3-yl)-N-methyl-3,5-bis-trifluoromethyl-benzamide] and `Cc1ccc(Cl)cc1-c1ccncc1N(C)C(=O)c1cc(C(F)(F)F)cc(C(F)(F)F)c1` [Example 82, N-[4-(5-Chloro-2-methyl-phenyl)-pyridin-3-yl]-N-methyl-3,5-bis-trifluoromethyl-benzamide] are within 1.5-fold of each other in EC50: 349 nM for the first, 234 nM for the second.

First: CC(C)Oc1ncccc1-c1ccncc1N(C)C(=O)c1cc(C(F)(F)F)cc(C(F)(F)F)c1 [Example 46, N-(2-Isopropoxy-[3,4′]bipyridinyl-3′-yl)-N-methyl-3,5-bis-trifluoromethyl-benzamide]
Second: CN(C(=O)c1cc(C(F)(F)F)cc(C(F)(F)F)c1)c1cnccc1-c1ccccc1Cl [Example 78, N-[4-(2-Chloro-phenyl)-pyridin-3-yl]-N-methyl-3,5-bis-trifluoromethyl-benzamide]
The EC50 of the first is 44-fold higher: 924 nM for the first, 21 nM for the second. The second is the more potent here.

Going from `COc1cc(F)ccc1-c1cc(C)ncc1N(C)C(=O)c1cc(SCCCCC(=O)NCC(=O)O)cc(C(F)(F)F)c1` [Example 315, [5-(3-{[4-(4-Fluoro-2-methoxy-phenyl)-6-methyl-pyridin-3-yl]-methyl-carbamoyl}-5-trifluoromethyl-phenylsulfanyl)-pentanoylamino]-acetic acid] to `COCCS(=O)(=O)c1cc(C(=O)N(C)c2cnccc2-c2ccc(F)cc2OC)cc(C(F)(F)F)c1` [Example 217, N-[4-(4-Fluoro-2-methoxy-phenyl)-pyridin-3-yl]-3-(2-methoxy-ethanesulfonyl)-N-methyl-5-trifluoromethyl-benzamide], the EC50 falls from 451 nM to 31 nM (15-fold). The second is the more potent here.

First: COC(=O)CN(C(=O)c1cc(C(F)(F)F)nc(C(F)(F)F)c1)c1cnccc1-c1ccc(F)cc1OC [Example 176, {(2,6-Bis-trifluoromethyl-pyridine-4-carbonyl)-[4-(4-fluoro-2-methoxy-phenyl)-pyridin-3-yl]-amino}-acetic acid methyl ester]
Second: COc1cc(C(=O)N(C)c2cnccc2-c2ccc(F)cc2OC)cc(C(F)(F)F)n1 [Example 206, N-[4-(4-Fluoro-2-methoxy-phenyl)-pyridin-3-yl]-2-methoxy-N-methyl-6-trifluoromethyl-isonicotinamide]
The EC50 of the first is 1.6-fold lower: 14 nM for the first, 23 nM for the second. The first is the more potent here.

Compared with `CS(=O)(=O)CCN(C(=O)c1cc(C(F)(F)F)cc(S(C)(=O)=O)c1)c1cnccc1-c1ccccc1OC(F)(F)F` [Example 308, 3-Methanesulfonyl-N-(2-methanesulfonyl-ethyl)-N-[4-(2-trifluoromethoxy-phenyl)-pyridin-3-yl]-5-trifluoromethyl-benzamide], `CN(C(=O)c1cc(C(F)(F)F)cc(S(C)(=O)=O)c1)c1cnccc1-c1ccccc1OC1COC1` [Example 272, 3-Methanesulfonyl-N-methyl-N-{4-[2-(oxetan-3-yloxy)-phenyl]-pyridin-3-yl}-5-trifluoromethyl-benzamide] is 15-fold lower in EC50: 936 nM for the first, 64 nM for the second.

First: CN(C(=O)c1cc(C(F)(F)F)cc(S(C)(=O)=O)c1)c1cnccc1-c1ccccc1 [Example 323, 3-Methanesulfonyl-N-methyl-N-(4-phenyl-pyridin-3-yl)-5-trifluoromethyl-benzamide]
Second: Cc1ccccc1-c1ccncc1N(C)C(=O)c1cc(C#N)cc(C(F)(F)F)c1 [Example 149, 3-Cyano-N-methyl-N-(4-o-tolyl-pyridin-3-yl)-5-trifluoromethyl-benzamide]
The EC50 of the first is 2.3-fold lower: 104 nM for the first, 242 nM for the second. The first is the more potent here.

Going from `CN(C(=O)c1cc(C(F)(F)F)cc(C(F)(F)F)c1)c1cnccc1-c1cc(F)cnc1Cl` [Example 55, N-(2-Chloro-5-fluoro-[3,4′]bipyridinyl-3′-yl)-N-methyl-3,5-bis-trifluoromethyl-benzamide] to `CCc1ccccc1-c1ccncc1N(C)C(=O)c1cc(C(F)(F)F)cc(C(F)(F)F)c1` [Example 168, N-[4-(2-Ethyl-phenyl)-pyridin-3-yl]-N-methyl-3,5-bis-trifluoromethyl-benzamide], the EC50 falls from 435 nM to 41 nM (11-fold).

First: COc1cc(F)ccc1-c1ccncc1N(C)C(=O)c1cc(C(F)(F)F)cc(S(=O)(=O)CCN2CCC2)c1 [Example 265, 3-(2-Azetidin-1-yl-ethanesulfonyl)-N-[4-(4-fluoro-2-methoxy-phenyl)-pyridin-3-yl]-N-methyl-5-trifluoromethyl-benzamide]
Second: Cc1cc(-c2ccccc2Cl)c(N(CC(F)(F)F)C(=O)c2cc(C(F)(F)F)cc(S(C)(=O)=O)c2)cn1 [Example 300, N-[4-(2-Chloro-phenyl)-6-methyl-pyridin-3-yl]-3-methanesulfonyl-N-(2,2,2-trifluoro-ethyl)-5-trifluoromethyl-benzamide]
The EC50 of the first is 6.9-fold lower: 121 nM for the first, 831 nM for the second. The first is the more potent here.

Work on `Cc1ccccc1-c1ccncc1N(C)C(=O)c1ccc(Cl)c(C(F)(F)F)c1` [Example 95, 4-Chloro-N-methyl-N-(4-o-tolyl-pyridin-3-yl)-3-trifluoromethyl-benzamide] yielded an EC50 of 92 nM.
